# Laboratory results as given in PubChem BioAssay (NCI).
#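 Each compound was tested at five concentrations against cells in 96-well plates for 48 hours. TGI: total growth inhibition.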
# Assays:
# Experiment in all cases: growth of human tumour cells (NCI), 48 h
# 786-0 renal = test system: 786-0 renal
# A498 renal = test system: A498 renal
# A549 NSCLC = test system: A549 NSCLC
# ACHN renal = test system: ACHN renal
# BT-549 breast = test system: BT-549 breast
# CAKI-1 renal = test system: CAKI-1 renal
# CCRF-CEM leukemia = test system: CCRF-CEM leukemia
# COLO 205 colon = test system: COLO 205 colon
# DU-145 prostate = test system: DU-145 prostate
# EKVX NSCLC = test system: EKVX NSCLC
# HCT-15 colon = test system: HCT-15 colon
# HL-60(TB) leukemia = test system: HL-60(TB) leukemia
# HOP-62 NSCLC = test system: HOP-62 NSCLC
# HOP-92 NSCLC = test system: HOP-92 NSCLC
# HS 578T breast = test system: HS 578T breast
# HT29 colon = test system: HT29 colon
# IGROV1 ovarian = test system: IGROV1 ovarian
# K-562 leukemia = test system: K-562 leukemia
# KM12 colon = test system: KM12 colon
# LOX IMVI melanoma = test system: LOX IMVI melanoma
# M14 melanoma = test system: M14 melanoma
# MALME-3M melanoma = test system: MALME-3M melanoma
# MDA-MB-231 breast = test system: MDA-MB-231 breast
# MDA-MB-435 = test system: MDA-MB-435
# MDA-N = test system: MDA-N
# MOLT-4 leukemia = test system: MOLT-4 leukemia
# NCI-H23 lung = test system: NCI-H23 lung
# NCI-H460 lung = test system: NCI-H460 lung
# NCI-H522 lung = test system: NCI-H522 lung
# NCI/ADR-RES ovarian = test system: NCI/ADR-RES ovarian
# OVCAR-3 ovarian = test system: OVCAR-3 ovarian
# OVCAR-4 ovarian = test system: OVCAR-4 ovarian
# OVCAR-5 ovarian = test system: OVCAR-5 ovarian
# OVCAR-8 ovarian = test system: OVCAR-8 ovarian
# PC-3 prostate = test system: PC-3 prostate
# RPMI-8226 leukemia = test system: RPMI-8226 leukemia
# SF-268 CNS = test system: SF-268 CNS
# SF-295 CNS = test system: SF-295 CNS
# SF-539 CNS = test system: SF-539 CNS
# SK-MEL-2 melanoma = test system: SK-MEL-2 melanoma
# SK-MEL-28 melanoma = test system: SK-MEL-28 melanoma
# SK-MEL-5 melanoma = test system: SK-MEL-5 melanoma
# SK-OV-3 ovarian = test system: SK-OV-3 ovarian
# SN12C renal = test system: SN12C renal
# SNB-19 CNS = test system: SNB-19 CNS
# SNB-75 CNS = test system: SNB-75 CNS
# SR leukemia = test system: SR leukemia
# SW-620 colon = test system: SW-620 colon
# T-47D breast = test system: T-47D breast
# TK-10 renal = test system: TK-10 renal
# U251 CNS = test system: U251 CNS
# UACC-257 melanoma = test system: UACC-257 melanoma
# UACC-62 melanoma = test system: UACC-62 melanoma
# UO-31 renal = test system: UO-31 renal
# HCC-2998 colon = test system: HCC-2998 colon
# MCF7 breast = test system: MCF7 breast
# NCI-H226 lung = test system: NCI-H226 lung
# RXF 393 renal = test system: RXF 393 renal
compound,measurement,setting,value
CCCc1c2c3ccccc3nc-2nc2ccccn12,TGI,786-0 renal,> 100 µM
same,TGI,A498 renal,> 100 µM
same,TGI,A549 NSCLC,> 100 µM
same,TGI,ACHN renal,> 100 µM
same,TGI,BT-549 breast,> 100 µM
same,TGI,CAKI-1 renal,> 100 µM
same,TGI,CCRF-CEM leukemia,> 100 µM
same,TGI,COLO 205 colon,> 100 µM
same,TGI,DU-145 prostate,> 100 µM
same,TGI,EKVX NSCLC,> 100 µM
same,TGI,HCT-15 colon,> 100 µM
same,TGI,HL-60(TB) leukemia,> 100 µM
same,TGI,HOP-62 NSCLC,90.7 µM
same,TGI,HOP-92 NSCLC,> 100 µM
same,TGI,HS 578T breast,> 100 µM
same,TGI,HT29 colon,> 100 µM
same,TGI,IGROV1 ovarian,> 100 µM
same,TGI,K-562 leukemia,> 100 µM
same,TGI,KM12 colon,> 100 µM
same,TGI,LOX IMVI melanoma,> 100 µM
same,TGI,M14 melanoma,> 100 µM
same,TGI,MALME-3M melanoma,> 100 µM
same,TGI,MDA-MB-231 breast,> 100 µM
same,TGI,MDA-MB-435,> 100 µM
same,TGI,MDA-N,> 100 µM
same,TGI,MOLT-4 leukemia,> 100 µM
same,TGI,NCI-H23 lung,88.6 µM
same,TGI,NCI-H460 lung,> 100 µM
same,TGI,NCI-H522 lung,> 100 µM
same,TGI,NCI/ADR-RES ovarian,> 100 µM
same,TGI,OVCAR-3 ovarian,> 100 µM
same,TGI,OVCAR-4 ovarian,> 100 µM
same,TGI,OVCAR-5 ovarian,88.1 µM
same,TGI,OVCAR-8 ovarian,> 100 µM
same,TGI,PC-3 prostate,> 100 µM
same,TGI,RPMI-8226 leukemia,> 100 µM
same,TGI,SF-268 CNS,70.4 µM
same,TGI,SF-295 CNS,> 100 µM
same,TGI,SF-539 CNS,> 100 µM
same,TGI,SK-MEL-2 melanoma,> 100 µM
same,TGI,SK-MEL-28 melanoma,> 100 µM
same,TGI,SK-MEL-5 melanoma,> 100 µM
same,TGI,SK-OV-3 ovarian,> 100 µM
same,TGI,SN12C renal,> 100 µM
same,TGI,SNB-19 CNS,> 100 µM
same,TGI,SNB-75 CNS,> 100 µM
same,TGI,SR leukemia,> 100 µM
same,TGI,SW-620 colon,> 100 µM
same,TGI,T-47D breast,> 100 µM
same,TGI,TK-10 renal,> 100 µM
same,TGI,U251 CNS,> 100 µM
same,TGI,UACC-257 melanoma,> 100 µM
same,TGI,UACC-62 melanoma,> 100 µM
same,TGI,UO-31 renal,> 100 µM
N#Cc1c(C#N)c(SSc2c(C#N)c(C#N)c(N)n2-c2ccccc2)n(-c2ccccc2)c1N,TGI,A498 renal,44.1 µM
same,TGI,A549 NSCLC,> 57.2 µM
same,TGI,ACHN renal,21.4 µM
same,TGI,BT-549 breast,30.7 µM
same,TGI,CAKI-1 renal,2.99 µM
same,TGI,COLO 205 colon,3.82 µM
same,TGI,DU-145 prostate,39 µM
same,TGI,EKVX NSCLC,59.5 µM
same,TGI,HCC-2998 colon,51 µM
same,TGI,HCT-15 colon,> 24.4 µM
same,TGI,HOP-62 NSCLC,> 69.1 µM
same,TGI,HOP-92 NSCLC,3.71 µM
same,TGI,HS 578T breast,55.2 µM
same,TGI,HT29 colon,> 59.1 µM
same,TGI,IGROV1 ovarian,> 60.5 µM
same,TGI,K-562 leukemia,> 100 µM
same,TGI,KM12 colon,> 63.3 µM
same,TGI,LOX IMVI melanoma,> 100 µM
same,TGI,MALME-3M melanoma,3.26 µM
same,TGI,MCF7 breast,5.84 µM
same,TGI,MDA-MB-231 breast,> 69.6 µM
same,TGI,MDA-MB-435,29.2 µM
same,TGI,MDA-N,> 56.7 µM
same,TGI,MOLT-4 leukemia,> 100 µM
same,TGI,NCI-H226 lung,54.3 µM
same,TGI,NCI-H23 lung,> 61 µM
same,TGI,NCI-H460 lung,> 89.3 µM
same,TGI,NCI-H522 lung,> 100 µM
same,TGI,NCI/ADR-RES ovarian,> 71.4 µM
same,TGI,OVCAR-3 ovarian,45.2 µM
same,TGI,OVCAR-5 ovarian,> 62.5 µM
same,TGI,OVCAR-8 ovarian,> 100 µM
same,TGI,PC-3 prostate,46.1 µM
same,TGI,RXF 393 renal,44.7 µM
same,TGI,SF-268 CNS,> 72 µM
same,TGI,SF-295 CNS,> 58.6 µM
same,TGI,SF-539 CNS,> 100 µM
same,TGI,SK-MEL-2 melanoma,47.7 µM
same,TGI,SK-MEL-28 melanoma,40.9 µM
same,TGI,SK-MEL-5 melanoma,31.9 µM
same,TGI,SK-OV-3 ovarian,37.5 µM
same,TGI,SN12C renal,38.3 µM
same,TGI,SNB-19 CNS,> 63.1 µM
same,TGI,SNB-75 CNS,> 70 µM
same,TGI,SW-620 colon,3.43 µM
same,TGI,T-47D breast,5.29 µM
same,TGI,TK-10 renal,3.29 µM
same,TGI,U251 CNS,42.4 µM
same,TGI,UACC-257 melanoma,> 69.8 µM
same,TGI,UACC-62 melanoma,46.4 µM
same,TGI,UO-31 renal,3.08 µM
